Reference: paper PMC6173696, “Structural properties of a haemophore facilitate targeted elimination of the pathogen Porphyromonas gingivalis” (Nature Communications, 2018)
Read-outs that look alike come from different tables or passages of the source.

Assays:
HusA Y164A = target: T1, HusA Y164A (Porphyromonas gingivalis, UniProt Q7MSY3, Y164A); assay: Tryptophan fluorescence quenching assay, HusA mutant Y164A; format: binding
T1 sequence (Q7MSY3 24-218 Y164A): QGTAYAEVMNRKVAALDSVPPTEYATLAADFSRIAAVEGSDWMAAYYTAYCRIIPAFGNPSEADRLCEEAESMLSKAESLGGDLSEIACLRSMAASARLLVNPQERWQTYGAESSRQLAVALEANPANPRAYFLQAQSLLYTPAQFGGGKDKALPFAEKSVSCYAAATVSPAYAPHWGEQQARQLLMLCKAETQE
Experimental: (§1) The quenching of intrinsic tryptophan fluorescence of HusA upon porphyrin additions was measured using a Carey Eclipse Fluorescence Spectrophotometer (Agilent) set to a photo multiplier effect (PME) of 850. A 5-mm path length quartz cuvette was used and all spectra were acquired at room temperature. Excitation was set to 295 nm and emission was measured from 300 nm to 500 nm using excitation/emission slit widths of 5 nm. Binding assays were performed at a protein concentration of 1 μM HusA in standard buffer at a working volume of 0.5 mL. […] The fluorescence quenching of HusA by PPIX was investigated in a similar manner with the following difference: the fluorescence intensities of ten 1 μM HusA samples were measured each with increasing amounts of PPIX after a 2-h incubation period to allow equilibrium to be reached. See Supplementary Methods for correction for inner filter effect and curve fitting. […]
(§2) Correction of inner filter effect and curve fitting in tryptophan fluorescence quenching assays The concentration of NATA was chosen such that the raw fluorescence intensity was similar to the 10 uM concentrations of HusA and mutants used. […] Fluorescence intensity was scaled with respect to the starting florescence and corrected for the inner filter effect. Fluorescence at 335 nm was used to fit binding curves. […]

HusA [1] = conditions: previously reported; now considered far weaker; cited from earlier work
HusA W130N = target: T2, HusA W130N (Porphyromonas gingivalis, UniProt Q7MSY3, W130N); assay: Tryptophan fluorescence quenching assay, HusA mutant W130N; format: binding
T2 sequence (Q7MSY3 24-218 W130N): T1 sequence (Q7MSY3 24-218 Y164A)

HusA [2] = target: T3, HusA (Porphyromonas gingivalis, UniProt Q7MSY3); assay: Tryptophan fluorescence quenching assay, HusA wild-type; format: binding
T3 sequence (Q7MSY3 24-218): T1 sequence (Q7MSY3 24-218 Y164A)
Experimental: as §1
Correction of inner filter effect and curve fitting in tryptophan fluorescence quenching assays The concentration of NATA was chosen such that the raw fluorescence intensity was similar to the […] concentrations of HusA and mutants used. The same molarity titrants of porphyrin were titrated into NATA as were added into HusA in the control reactions. Fluorescence intensity was scaled with respect to the starting florescence and corrected for the inner filter effect. Fluorescence at 335 nm was used to fit binding curves.
The correction method is based on Fonin AV., et al.26, noting that a Cary Eclipse spectrofluorimeter […]
performed to measure the contribution to the decrease in fluorescence due to the inner filter effect and this effect was scaled to the starting fluorescence values as fractional changes. The measured fluorescence at each titration point for each of the porphyrin titrations into protein was then adjusted for this contribution. Fluorescence at 335 nm was used to fit binding curves. Association constant, Ka, was fitted using the following equation in Origin, assuming a single binding site. A dissociation constant, Kd, was calculated by taking the inverse of the Ka.
Xobs = XA×f A+XAB×f AB (1) where XA is the corrected fluorescence, fA=1-fAB, fAB=x/(Bt), x=(-b-sqrt(b2-4×c))/2, b=-(1/Ka+At+Bt), c=Bt×At, Bt=total concentration of protein, At=total concentration of ligand.
To aid comparison of the different titrations, the corrected fluorescence was scaled to the starting fluorescence in the absence of porphyrins (i.e. all fluorescence curves have a starting value of one

HusA L123N-V124N = target: T4, HusA L123N-V124N (Porphyromonas gingivalis, UniProt Q7MSY3, L123N/V124N); assay: Tryptophan fluorescence quenching assay, HusA mutant L123N-V124N; format: binding; conditions: mutant LV123/4NN
T4 sequence (Q7MSY3 24-218 L123N/V124N): T1 sequence (Q7MSY3 24-218 Y164A)
Experimental: as §1, §2

IsdH(Y642A) = target: T5, IsdH(Y642A) (Staphylococcus aureus, UniProt Q931P4, Y642A); format: physicochemical; conditions: haemin bound to IsdH (Y642A)
T5 sequence (Q931P4 41-891 Y642A): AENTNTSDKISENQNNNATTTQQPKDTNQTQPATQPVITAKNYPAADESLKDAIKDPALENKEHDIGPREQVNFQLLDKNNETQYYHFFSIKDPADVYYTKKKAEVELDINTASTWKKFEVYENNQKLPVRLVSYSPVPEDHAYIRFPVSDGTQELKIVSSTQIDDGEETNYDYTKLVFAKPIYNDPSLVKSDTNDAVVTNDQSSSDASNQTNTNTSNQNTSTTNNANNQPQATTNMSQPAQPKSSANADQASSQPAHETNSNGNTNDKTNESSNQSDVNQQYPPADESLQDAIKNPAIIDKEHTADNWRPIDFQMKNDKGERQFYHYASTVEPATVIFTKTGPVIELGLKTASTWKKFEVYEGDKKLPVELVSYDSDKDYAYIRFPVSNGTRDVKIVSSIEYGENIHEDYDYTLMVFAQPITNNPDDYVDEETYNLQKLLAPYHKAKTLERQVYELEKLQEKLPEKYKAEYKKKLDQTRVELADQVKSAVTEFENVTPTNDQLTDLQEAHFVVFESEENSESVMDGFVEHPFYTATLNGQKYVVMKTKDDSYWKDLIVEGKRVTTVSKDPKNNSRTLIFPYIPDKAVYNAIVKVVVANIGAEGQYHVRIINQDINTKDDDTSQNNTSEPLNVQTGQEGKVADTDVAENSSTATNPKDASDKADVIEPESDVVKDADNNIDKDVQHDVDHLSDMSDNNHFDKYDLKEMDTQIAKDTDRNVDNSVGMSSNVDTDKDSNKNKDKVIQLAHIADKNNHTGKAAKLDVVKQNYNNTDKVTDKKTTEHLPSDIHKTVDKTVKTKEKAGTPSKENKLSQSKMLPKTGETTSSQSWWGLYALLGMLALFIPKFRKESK
Experimental: (§3) Supplementary Figure 16. Acid-alkaline transition in UV-vis spectra of various haem binding proteins. (Top) UV-visible spectra (units of wavelength are nm) used to generate the pH titration curves shown in Figure 2h and in the bottom panel. (Bottom) Acid-alkaline titration of 5 µM haemin in presence of 7 µM IsdH, 5 µM IsdB, 7 µM IsdH(Y642A) and 7 µM p22HBP. All proteins are in holo form. See Fig 2h legend for buffer conditions. Absorbance A600–A650 values are plotted except for IsdH and IsdB, for which A630–A600 is plotted (to avoid negative values). […]

p22HBP = target: T6, p22HBP (Mus musculus, UniProt Q9R257); assay: Acid-alkaline transition of UV-vis spectra, haemin bound to p22HBP; format: physicochemical; conditions: haemin bound to murine p22HBP
T6 sequence (Q9R257 1-190): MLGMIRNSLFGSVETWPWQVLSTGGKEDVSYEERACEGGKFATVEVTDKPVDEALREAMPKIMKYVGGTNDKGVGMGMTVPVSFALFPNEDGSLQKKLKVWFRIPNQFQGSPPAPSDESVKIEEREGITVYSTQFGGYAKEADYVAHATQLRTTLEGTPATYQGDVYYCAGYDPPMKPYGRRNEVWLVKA
Experimental: as §3

SMILES	reduction of haemin affinity compared to wild-type (HusA Y164A)	Kd (HusA [1])	reduction of haemin affinity compared to wild-type (HusA W130N)	Kd (HusA [2]; HusA wild-type 1 µM, fit to 1:1 binding model)	reduction of haemin affinity compared to wild-type (HusA L123N-V124N)	pKa of acid-alkaline transition (IsdH(Y642A))	pKa of acid-alkaline transition (p22HBP)	Kd (HusA [2]; estimate by comparison to other porphyrins, not fitted, UV-visible absorption and fluorescence data, read-out: affinity for HusA)
C=CC1=C(C)c2cc3[nH]c(cc4nc(cc5[nH]c(cc1n2)c(C)c5CCC(=O)O)C(CCC(=O)O)=C4C)c(C)c3C=C.[Fe+3] [haemin]	> 50%	~0.002 µM	> 50%	7.3 ± 1.1 µM	> 50%	5.9	6.2	
CC1=Cc2cc3[nH]c(cc4nc(cc5[nH]c(cc1n2)cc5C)C(C)=C4CCC(=O)N[C@@H](CCCCNC(=O)OC(C)(C)C)C(=O)NCCn1c([N+](=O)[O-])cnc1C)c(CCC(=O)O)c3C [P8]								1 to 10 µM
